# Reference: publication PMC9544171, “Glucose‐dependent insulinotropic polypeptide receptor antagonist treatment causes a reduction in weight gain in ovariectomised high fat diet‐fed mice” (British Journal of Pharmacology, 2022)
# Where a SMILES comes first, the peptide text is derived from it. The star is where a group is joined. C16 diacid = O=C(O)CCCCCCCCCCCCCCC(=O)*
# How the values were obtained:
# mouse GLP‐2 receptor = biological target: T1, mouse GLP‐2 receptor (Mus musculus, UniProt Q5IXF8); assay: cAMP accumulation, agonism in transfected COS‐7 cells; assay type: cell-based; conditions: increasing concentrations, COS‐7, n = 5
# T1 construct: host or cells: COS-7
# T1 sequence (Q5IXF8 1-512): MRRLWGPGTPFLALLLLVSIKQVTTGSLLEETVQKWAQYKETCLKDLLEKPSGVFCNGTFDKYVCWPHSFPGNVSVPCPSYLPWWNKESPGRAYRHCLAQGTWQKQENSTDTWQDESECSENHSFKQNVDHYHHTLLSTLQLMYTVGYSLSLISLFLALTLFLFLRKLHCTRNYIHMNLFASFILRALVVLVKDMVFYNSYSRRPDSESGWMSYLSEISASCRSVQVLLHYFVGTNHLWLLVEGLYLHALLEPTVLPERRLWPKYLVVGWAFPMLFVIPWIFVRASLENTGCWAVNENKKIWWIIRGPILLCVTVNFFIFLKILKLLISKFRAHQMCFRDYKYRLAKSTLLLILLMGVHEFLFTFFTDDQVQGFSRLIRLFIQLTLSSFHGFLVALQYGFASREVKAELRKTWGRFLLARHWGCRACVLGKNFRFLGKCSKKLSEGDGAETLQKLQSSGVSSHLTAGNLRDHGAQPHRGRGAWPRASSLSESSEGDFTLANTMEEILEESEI
# Description: (§1) COS‐7 cells were cultured at 10% CO2 and 37°C in Dulbecco's Modified Eagle Medium 1885 supplemented with 10% foetal bovine serum, 2‐mM glutamine, 180‐units ml^−1 penicillin and […] streptomycin. Transient transfection of the cells with either human or mouse GIP receptor was performed using the calcium phosphate precipitation method as previously described (van der Velden et al., [2021]). A second set of cells was transiently transfected with either mouse GLP‐1 or GLP‐2 receptor. Following the day after transfection, the cells were seeded in white 96‐well plates with a density of 35.000 cells per well. The next day the assay was initiated by washing the cells with HEPES buffered saline (HBS) followed by an incubation step with HBS and 1‐mM 3‐isobutyl‐1‐methylxanthine for 30 min at 37°C. For agonist studies, the ligands were then added and incubated for an additional 30 min at 37°C. To test for antagonistic properties, the cells were first preincubated for 10 min with the antagonist with subsequent addition of the agonist and incubated for an additional 20 min. The HitHunter® cAMP assay (Eurofins DiscoverX, Fremont, USA) was carried out according to the manufacturer's protocol. Luminescence was measured by PerkinElmer™ Envision 2014 Multilabel Reader.
# FIGURE 2 In vitro signalling profile of mGIPAnt‐1 on the mouse GLP‐1 and GLP‐2 receptor (R). […]
# [1] = tested on: Female ovariectomised C57Bl6/J mice; assay: Oral glucose tolerance test after 7 weeks of treatment; assay type: in vivo, mouse
# Description: After 7 weeks HFD and mGIPAnt‐1 treatment, an oral glucose tolerance test was performed. Animals were fasted from 08:00 AM to 11:00 AM and received 2‐g·kg^−1 glucose through oral gavage. Blood glucose was measured in the tail vein samples using a hand‐held glucometer (Accu‐Chek Mobile, Roche) at t = 0, 15, 30, 45, 60, 120 and 180 min. Retro‐orbital blood samples (75 μl) were taken using EDTA coated glass capillaries at t = 0, 15, 30 and 60 min and centrifuged at 3500g, 20 min, 4°C. Plasma was transferred into Eppendorf tubes on dry ice and stored at −20°C for later analysis of insulin measurements.
# Insulin levels in intraperitoneal glucose tolerance test and oral glucose tolerance test plasma samples were measured using a mouse insulin ELISA (catalogue no. 10‐1247‐10; Mercodia AB, Uppsala, Sweden). Adiponectin levels in terminal plasma samples were measured using a mouse adiponectin ELISA kit (catalogue no. 80569, Crystal Chem, Elk Grove Village, IL, USA). Adiponectin samples were carefully diluted in kit‐specific assay buffer. The manufacturer's instructions were followed closely.
# human GIP receptor = biological target: T2, human GIP receptor (Homo sapiens, UniProt P48546); assay: cAMP accumulation, antagonism of human GIP(1‐42) in transfected COS‐7 cells; assay type: cell-based; conditions: COS‐7 transiently transfected with human GIPR; 10 min preincubation with antagonist, then human GIP(1‐42) at 50%–80% of Emax for 20 min; HitHunter cAMP; Hill slope −1.0; n = 5 independent experiments; read-out: IC50, inhibition of hGIP‐induced cAMP accumulation, human GIPR
# T2 construct: host or cells: COS-7
# T2 sequence (P48546 22-466): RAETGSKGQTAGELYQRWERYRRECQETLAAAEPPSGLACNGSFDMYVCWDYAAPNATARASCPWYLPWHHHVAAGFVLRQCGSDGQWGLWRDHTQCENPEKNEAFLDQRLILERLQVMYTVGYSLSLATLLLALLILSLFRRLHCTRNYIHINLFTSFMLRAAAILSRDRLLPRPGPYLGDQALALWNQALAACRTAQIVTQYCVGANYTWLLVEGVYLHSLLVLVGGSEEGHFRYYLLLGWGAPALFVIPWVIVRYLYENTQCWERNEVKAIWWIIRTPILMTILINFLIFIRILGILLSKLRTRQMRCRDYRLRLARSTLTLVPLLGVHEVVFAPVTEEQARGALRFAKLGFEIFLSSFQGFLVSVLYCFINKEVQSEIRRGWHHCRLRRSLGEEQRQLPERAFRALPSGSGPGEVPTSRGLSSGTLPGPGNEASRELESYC
# Description: as §1, with “To test for antagonistic properties, the cells were first preincubated for 10 min with the antagonist with subsequent addition of the agonist and incubated for an additional 20 min. The HitHunter® cAMP assay (Eurofins DiscoverX, Fremont, USA) was carried out according to the manufacturer's protocol.” left out, “Reader. […]” for “Reader.”
# Results are presented as mean ± SE. Data were analysed with one‐way and two‐way analysis of variance (ANOVA) with Tukey's or Sidak multiple comparisons test and Student's unpaired t tests where appropriate. […] For the in vitro data IC50 values were determined by nonlinear regression using GraphPad Prism 9 (San Diego, California, USA). […]
smiles,measurement,setting,value
CC[C@H](C)[C@H](NC(=O)[C@H](CO)NC(=O)[C@H](Cc1ccc(O)cc1)NC(=O)[C@H](CC(=O)O)NC(=O)[C@H](CO)NC(=O)[C@@H](NC(=O)[C@H](Cc1ccccc1)NC(=O)[C@@H](NC(=O)CNC(=O)[C@@H](N)CCC(=O)O)[C@@H](C)O)[C@@H](C)CC)C(=O)N[C@@H](C)C(=O)N[C@@H](CCSC)C(=O)N[C@@H](CC(=O)O)C(=O)N[C@@H](CCCCN)C(=O)N[C@H](C(=O)N[C@@H](CCCCNC(=O)CCCCCCCCCCCCCCC(=O)O)C(=O)N[C@@H](CCC(N)=O)C(=O)N[C@@H](CCC(N)=O)C(=O)N[C@@H](CC(=O)O)C(=O)N[C@@H](Cc1ccccc1)C(=O)N[C@H](C(=O)N[C@@H](CC(N)=O)C(=O)N[C@@H](Cc1c[nH]c2ccccc12)C(=O)N[C@@H](CC(C)C)C(=O)N[C@@H](CC(C)C)C(=O)N[C@@H](C)C(=O)N[C@@H](CCC(N)=O)C(=O)N[C@@H](CCCCN)C(=O)NCC(=O)N[C@@H](CCCCN)C(=O)N[C@@H](CCCCN)C(=O)N[C@@H](CC(N)=O)C(=O)N[C@@H](CC(=O)O)C(=O)N[C@@H](Cc1c[nH]c2ccccc12)C(=O)N[C@@H](CCCCN)C(=O)N[C@@H](Cc1c[nH]cn1)C(=O)N[C@@H](CC(N)=O)C(=O)O)C(C)C)[C@@H](C)CC [mGIPAnt‐1] (H-EGTFISDYSIAMDKIK(C16 diacid)QQDFVNWLLAQKGKKNDWKHN-OH),activation of mouse GLP‐2 receptor (cAMP),mouse GLP‐2 receptor,does not induce activation
same,"glucose curve and iAUC, OGTT","[1]; 7 weeks of 300 nmol·kg−1 s.c. daily, 2 g·kg−1 oral glucose",did not affect
same,"insulin curve and iAUC, OGTT","[1]; 7 weeks of 300 nmol·kg−1 s.c. daily, 2 g·kg−1 oral glucose, ELISA",did not affect
same,fasting insulin levels,[1]; 7 weeks of treatment,not affected
same,"fasting glucose levels, HFD","[1]; 7 weeks of treatment, versus Vehicle/HFD",significantly decreased
same,IC50,human GIP receptor,11 nM
